Measurements as given in US20230365566A1, “HETEROCYCLIC AMIDES AND THEIR USE FOR MODULATING SPLICING” (REMIX THERAPEUTICS INC., priority 2020, published 2023).

Key:
Type in all cases: cell-based
[1] = test system: HTT mRNA alternative junction (AJ); assay: Splicing RT-qPCR assay, increase of HTT alternative junction (AJ) mRNA; details: A673 or K562 cells, 24 hours compound treatment, concentration having 50% response in AJ increase
Method in brief: (§1)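 A673 (DMEM, 10% FBS) or K562 (IMDM, 10% FBS) cells exposed 24 h at 37 °C to an 11-point 3-fold series, top dose 10 uM final, DMSO ≤0.25%. Lysates assayed by RT-qPCR for HTT CJ and AJ, normalized to GAPDH, GUSB or PPIA and DMSO control via 2^(−ΔΔCt).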

[2] = test system: HTT mRNA canonical junction (CJ); assay: Splicing RT-qPCR assay, decrease of HTT canonical junction (CJ) mRNA; details: A673 or K562 cells, 24 hours compound treatment, concentration having 50% response in CJ decrease
Method in brief: as §1

HTT CJ mRNA = assay: Gene panel canonical junction qPCR assay, HTT; details: protocol of Example 42, read-out: HTT IC50 (decrease in CJ mRNA levels)
Method in brief: (§2)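 A673 or K562 cells treated 24 h at 37° C with 11-point 3-fold dilutions (top 10 uM, DMSO ≤0.25%). Canonical junction mRNA quantified by RT-qPCR, normalized to GAPDH, GUSB or PPIA and DMSO control (2^(−ΔΔCt)). 4-parameter logistic fit gives IC50 for CJ decrease.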

SMN2 CJ mRNA = assay: Gene panel canonical junction qPCR assay, SMN2; details: protocol of Example 42, read-out: SMN2 IC50 (decrease in CJ mRNA levels)
Method in brief: as §2

Target C CJ mRNA = assay: Gene panel canonical junction qPCR assay, Target C; details: protocol of Example 42, read-out: Target C IC50 (decrease in CJ mRNA levels)
Method in brief: as §2

Row | SMILES | AC50 [1] | AC50 [2] | IC50 (HTT CJ mRNA) | IC50 (SMN2 CJ mRNA) | IC50 (Target C CJ mRNA)
1 | Cc1cn2cc(NC(=O)c3ccc(N4CCN5CCCC5C4)c4cn(C)nc34)cc(F)c2n1 (stereo not shown) [Compound 250] | 100 to 1000 nM | 100 to 1000 nM | 100 to 1000 nM | < 100 nM | 1000 to 10000 nM
2 | Cc1cn2cc(NC(=O)c3ccc(N4CCNC(C)(C)C4)c4cn(C)nc34)cc(F)c2n1 [Compound 240] | 100 to 1000 nM | 100 to 1000 nM | 100 to 1000 nM | < 100 nM | 1000 to 10000 nM
3 | Cc1cn2cc(NC(=O)c3ccc(N4CCC(NC(C)(C)C)C4)c4cc(C)oc34)cc(F)c2n1 (stereo not shown) [Compound 203, 4-[3-(tert-butylamino)pyrrolidin-1-yl]-N-[8-fluoro-2-methylimidazo[1,2-a]pyridin-6-yl]-2-methyl-1-benzofuran-7-carboxamide] | 1000 to 10000 nM | 1000 to 10000 nM | 1000 to 10000 nM | 100 to 1000 nM | 1000 to 10000 nM
4 | Cc1cn2cc(NC(=O)c3ccc(N4CCC(N(C)C)C4)c4cn(C)nc34)cc(F)c2n1 (stereo not shown) [Compound 258] | 100 to 1000 nM | 1000 to 10000 nM | 1000 to 10000 nM | < 100 nM | 1000 to 10000 nM
5 | Cc1cn2cc(NC(=O)c3ccc(N4CCNC5(CC5)C4)c4cn(C)nc34)cc(F)c2n1 [Compound 241] | 1000 to 10000 nM | 1000 to 10000 nM | 1000 to 10000 nM | < 100 nM | 1000 to 10000 nM
6 | Cc1cn2cc(NC(=O)c3ccc(N4CCNCC4)c4cn(C)nc34)ncc2n1 [Compound 246] | 1000 to 10000 nM | 1000 to 10000 nM | 1000 to 10000 nM | < 100 nM | > 10000 nM
7 | Cn1cc2c(N3CCNCC3)ccc(C(=O)Nc3cn[nH]c3)c2n1 [Compound 270] | > 10000 nM | > 10000 nM | > 10000 nM | > 10000 nM | > 10000 nM
8 | Cc1cn2cc(NC(=O)c3ccc(N4C[C@H]5CC[C@@H](C4)N5)c4cn(C)nc34)cc(F)c2n1 [Compound 260] | 100 to 1000 nM | 100 to 1000 nM | 100 to 1000 nM | < 100 nM | > 10000 nM
9 | Cc1cn2nc(NC(=O)c3ccc(N4CCNCC4)c4cc(C)oc34)cc(C)c2n1 [Compound 148, N-[2,8-dimethylimidazo[1,2-b]pyridazin-6-yl]-2-methyl-4-(piperazin-1-yl)-1-benzofuran-7-carboxamide] | 1000 to 10000 nM | 1000 to 10000 nM | 1000 to 10000 nM | 100 to 1000 nM | 1000 to 10000 nM
10 | Cc1cn2cc(NC(=O)c3ccc(N4CCNCC4)c4cc(C)oc34)cc(Cl)c2n1 [Compound 266] | 1000 to 10000 nM | 1000 to 10000 nM | 1000 to 10000 nM | < 100 nM | > 10000 nM
11 | Cc1cn2cc(NC(=O)c3ccc(N(C)C4CC(C)(C)NC(C)(C)C4)c4cn(C)nc34)cc(F)c2n1 [Compound 244] | > 10000 nM | > 10000 nM | > 10000 nM | 100 to 1000 nM | > 10000 nM
12 | Cc1cn2cc(NC(=O)c3ccc(N4CCC(NC(C)(C)C)CC4)c4cc(C)oc34)cc(F)c2n1 [Compound 197, 4-[4-(tert-butylamino)piperidin-1-yl]-N-[8-fluoro-2-methylimidazo[1,2-a]pyridin-6-yl]-2-methyl-1-benzofuran-7-carboxamide] | > 10000 nM | > 10000 nM | > 10000 nM | 100 to 1000 nM | > 10000 nM
13 | Cc1cn2cc(NC(=O)c3ccc(N4CCN(C)CC4)c4cn(C)nc34)cc(F)c2n1 [Compound 207] | 100 to 1000 nM | 100 to 1000 nM | 100 to 1000 nM | < 100 nM | 1000 to 10000 nM
14 | Cc1cn2cc(NC(=O)c3ccc(C4CCNCC4)c4oc(C)nc34)cc(F)c2n1 [Compound 187, N-[8-fluoro-2-methylimidazo[1,2-a]pyridin-6-yl]-2-methyl-7-(piperidin-4-yl)-1,3-benzoxazole-4-carboxamide] | 100 to 1000 nM | 100 to 1000 nM | 100 to 1000 nM | < 100 nM | 100 to 1000 nM
